# “And” between values parts separate entries of the source, which are not always exact repeats. Equal entries are not always repeated. Where two headings read alike, the source gives them in different places.
# Legend:
# Plasma protein binding = assay type: in vitro ADME
# Description: Binding of compound to plasma proteins was determined by equilibrium dialysis of 3 µmol/L compound in plasma (or plasma dilutions in PBS) against PBS through an 8 kDa molecular-weight cut-off cellulose membrane (RED device, Thermo Fisher) at 37 °C for 5 h. After incubation, aliquots from donor and acceptor compartments were precipitated and the concentrations in the supernatants were determined by quantitative LC-MS/MS. Calibration and quality control samples were prepared using blank plasma and internal standard. The fraction unbound was calculated as ratio of the compound concentration in the acceptor compartment to the concentration in the donor compartment.
# P-gp = assay: Bidirectional permeability measurement in Caco-2 cells; assay type: in vitro ADME; details: human, Caco-2, pH 7.4, with zosuquidar 5 µM
# How it was run: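 Caco-2 monolayers grown 14–21 days, preincubated 24 h with medium containing 1 µM compound; bidirectional transport sampled up to 2 h, quantified by LC-MS/MS, ± 5 µM zosuquidar (P-gp inhibitor). Papp,AB and Papp,BA from receiver amount, donor C0, area and time; efflux ratio = Papp,BA/Papp,AB (duplicate means). TEER checked per plate.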
# SMARCA2 = SMARCA2 (Homo sapiens, UniProt P51531); assay: SMARCA2 capillary electrophoresis protein assay in other cell lines (A549, NCI-H1568, HCT116, LU99, HCC-364, HCT-15, HCC4006, SK-N-AS); assay type: cell-based; set-up: endogenous in cells; host or cells: RKO, NCI-H1568, A549, HCT116, LU99, HCC-364, HCT-15, HCC4006, SK-N-AS
# Sequence of SMARCA2 (P51531 whole entry): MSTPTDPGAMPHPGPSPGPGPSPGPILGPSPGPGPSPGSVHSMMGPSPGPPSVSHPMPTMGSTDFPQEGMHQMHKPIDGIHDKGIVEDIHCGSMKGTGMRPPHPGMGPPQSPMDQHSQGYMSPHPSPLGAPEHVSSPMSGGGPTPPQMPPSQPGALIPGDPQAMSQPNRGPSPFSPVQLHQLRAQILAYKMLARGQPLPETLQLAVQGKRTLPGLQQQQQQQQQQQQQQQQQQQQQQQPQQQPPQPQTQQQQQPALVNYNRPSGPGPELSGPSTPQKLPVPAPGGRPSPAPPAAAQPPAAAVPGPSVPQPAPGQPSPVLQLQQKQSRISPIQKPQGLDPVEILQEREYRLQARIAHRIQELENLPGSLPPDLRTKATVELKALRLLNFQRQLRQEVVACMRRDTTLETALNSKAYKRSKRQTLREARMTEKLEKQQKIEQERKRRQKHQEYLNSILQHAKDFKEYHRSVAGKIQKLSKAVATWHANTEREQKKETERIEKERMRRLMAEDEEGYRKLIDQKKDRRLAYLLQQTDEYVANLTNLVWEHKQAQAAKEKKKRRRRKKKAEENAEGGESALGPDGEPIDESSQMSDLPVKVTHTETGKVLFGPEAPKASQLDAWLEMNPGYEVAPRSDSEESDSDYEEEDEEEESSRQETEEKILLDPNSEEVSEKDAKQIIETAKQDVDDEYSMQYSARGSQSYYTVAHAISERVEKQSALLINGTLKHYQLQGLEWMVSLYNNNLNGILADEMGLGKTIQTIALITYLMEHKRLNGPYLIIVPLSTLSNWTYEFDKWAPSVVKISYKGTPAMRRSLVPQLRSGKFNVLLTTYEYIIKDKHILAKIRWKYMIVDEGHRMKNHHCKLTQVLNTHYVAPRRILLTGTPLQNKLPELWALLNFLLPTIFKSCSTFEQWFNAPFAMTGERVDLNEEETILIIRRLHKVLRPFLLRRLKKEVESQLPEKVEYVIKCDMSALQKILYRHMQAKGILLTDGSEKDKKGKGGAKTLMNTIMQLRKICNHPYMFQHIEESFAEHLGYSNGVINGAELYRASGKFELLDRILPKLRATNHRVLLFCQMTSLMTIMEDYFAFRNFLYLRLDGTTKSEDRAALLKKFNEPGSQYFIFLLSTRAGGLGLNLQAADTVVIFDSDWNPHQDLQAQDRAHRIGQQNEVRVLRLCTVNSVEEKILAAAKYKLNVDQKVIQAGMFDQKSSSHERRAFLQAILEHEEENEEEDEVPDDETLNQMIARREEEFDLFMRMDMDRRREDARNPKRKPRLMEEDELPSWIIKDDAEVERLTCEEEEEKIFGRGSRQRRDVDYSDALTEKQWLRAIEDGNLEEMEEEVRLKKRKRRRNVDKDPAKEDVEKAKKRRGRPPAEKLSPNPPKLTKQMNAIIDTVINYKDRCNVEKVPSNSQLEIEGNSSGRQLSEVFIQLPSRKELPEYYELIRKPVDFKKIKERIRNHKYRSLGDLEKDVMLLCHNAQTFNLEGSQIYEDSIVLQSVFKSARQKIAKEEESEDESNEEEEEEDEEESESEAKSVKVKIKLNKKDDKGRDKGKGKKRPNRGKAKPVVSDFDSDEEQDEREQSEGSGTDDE
# Description: 130,000–200,000 cells were seeded in 24-well plates and incubated until settled down or overnight. Compounds were dissolved in DMSO and added to cells in indicated concentrations using a digital dispenser following an optional media change. Cells were incubated for 4 or 18 h as indicated. For SMARCA2/4 half-life determination, 150,000 or 200,000 cells were seeded in 24-well plates. The next day, 50 µg/ml cycloheximide (Sigma) was added and cells were incubated for 1–24 h. For SMARCA2/4 re-synthesis measurements, 200,000 cells were seeded in 24-well plates. The next day, 100 nM compound 6 was added for 4 h to degrade SMARCA2/4, and a sample was taken as baseline for normalisation. To allow re-synthesis, a VHL binder (compound 32, 25 or 50 µM) was then added for 3 or 24 h. Medium was removed, cells were washed with PBS and lysed with 80 µl Lysis Buffer (MSD Tris Lysis Buffer (#R60TX-2) + Halt Inhibitor Cocktail (100x) + Benzonase 0.5 µL/ml). Samples were frozen at −80 °C and thawed at room temperature before use. Samples were transferred to a V-bottom plate and insoluble debris was pelleted by centrifugation for 5 min at maximum speed. The supernatant was transferred to a fresh plate. Master Mix and Ladder were prepared according to manufacturer’s instructions for 12–230 kDa Wes Separation Module, 8 × 25 capillary cartridges, Protein Simple #SM-W004 with Anti-Rabbit Detection Module for Wes, Peggy Sue or Sally Sue, Protein Simple #DM-001. 4.8 µl lysate were mixed with 1.2 µl Master Mix to achieve a protein concentration of ~0.5 µg/µl. Antibodies were diluted in Antibody Diluent II (SMARCA2 Sigma #HPA029981 RRID:AB_10602406 1:25–100, SMARCA4 Cell Signalling #49360 clone D1Q7F RRID:AB_2728743 1:15–120 or Abcam #ab110641 clone EPNCIR111A RRID:AB_10861578 1:60, GAPDH Abcam #ab9485 RRID:AB_307275 1:250). Wes plates were prepared and run according to manufacturer’s instructions. Proteins were quantified with accompanying Compass Software. SMARCA2/4 protein levels were normalised to GAPDH. […] Where applicable, curves were fitted using a 4-parametric logistic model.
# [1] = HCC4006_SM2, four-parameter fit
# [2] = HCC-364_SM2, four-parameter fit
compound,measurement,setting,value
Cc1ncsc1-c1ccc(C(CCC(C)CCN2CCC(c3ccc4c(c3)n(C3CCCC3)c3nc(=O)c5c(Br)cccc5n43)CC2)NC(=O)C2CC(O)CN2C(=O)C(NC(=O)C2(F)CC2)C(C)(C)C)cc1 (centres unmarked) [ACBI2],PPB fu 10% Human,Plasma protein binding; 10% human,< 0.054%
same,PPB fu 10% Rat,Plasma protein binding; 10% rat,< 0.053% and < 0.048%
same,"fraction unbound at 5 h, 3 µmol/L","Plasma protein binding; bovine, 10% calf plasma dilution in PBS, 10% calf, fraction unbound, read-out: PPB fu 10% Calf",0.0035
same,"fraction unbound at 5 h, 3 µmol/L","Plasma protein binding; bovine, 10% plasma (plasma dilution in PBS), 10% calf, read-out: PPB fu 10% Calf",0.00349
same,"fraction unbound at 5 h, 3 µmol/L","Plasma protein binding; human, 10% plasma (plasma dilution in PBS), 10% human, read-out: PPB fu 10% Human",< 0.00045
same,"fraction unbound at 5 h, 3 µmol/L","Plasma protein binding; human, plasma, human, fraction unbound, read-out: PPB fu Human",< 0.0005
same,"fraction unbound at 5 h, 3 µmol/L","Plasma protein binding; mouse, 10% plasma (plasma dilution in PBS), 10% mouse, read-out: PPB fu 10% Mouse",< 0.00051
same,"fraction unbound at 5 h, 3 µmol/L","Plasma protein binding; mouse, plasma, mouse, fraction unbound, read-out: PPB fu Mouse",< 0.0005
same,"fraction unbound at 5 h, 3 µmol/L","Plasma protein binding; rat, 10% plasma (plasma dilution in PBS), 10% rat, read-out: PPB fu 10% Rat",< 0.00054
same,"fraction unbound at 5 h, 3 µmol/L","Plasma protein binding; rat, plasma, rat, fraction unbound, read-out: PPB fu Rat",< 0.0005
same,Papp A→B at 1 µM,"P-gp; Modified Caco-2 + PGPi (Zosuquidar), read-out: Modified Caco-2 + PGPi (Zosuquidar) Pab",8 ± 4 ×10⁻⁶ cm/s
same,"Papp B→A at 2 h, 1 µM","P-gp; Modified Caco-2, b to a, + PGPi (Zosuquidar), read-out: Modified Caco-2 Pba + PGPi (Zosuquidar)",11 ×10⁻⁶ cm/s
same,"Bottom (% protein remaining, four-parameter fit)","SMARCA2; A549, 4h",4.929%
same,HillSlope (protein remaining),"SMARCA2; A549, 4h",-1.225
same,LogEC50 (protein remaining),"SMARCA2; A549, 4h",-8.097 log10(mol/l)
same,"Top (% protein remaining, four-parameter fit)","SMARCA2; A549, 4h",100.9%
same,% protein remaining,"SMARCA2; A549, 4h, conc 1.00001e-10 mol/l",84.5708% and 85.2048%
same,% protein remaining,"SMARCA2; A549, 4h, conc 1.52416e-10 mol/l",108.644%
same,% protein remaining,"SMARCA2; A549, 4h, conc 3.1623e-10 mol/l",89.402% and 93.1131%
same,% protein remaining,"SMARCA2; A549, 4h, conc 4.57247e-10 mol/l",121.415%
same,% protein remaining,"SMARCA2; A549, 4h, conc 1.00001e-9 mol/l",110.304% and 110.867%
same,% protein remaining,"SMARCA2; A549, 4h, conc 1.37174e-9 mol/l",89.7364%
same,% protein remaining,"SMARCA2; A549, 4h, conc 3.1623e-9 mol/l",63.5379% and 69.9208%
same,% protein remaining,"SMARCA2; A549, 4h, conc 4.11523e-9 mol/l",69.7779%
same,% protein remaining,"SMARCA2; A549, 4h, conc 1.00001e-8 mol/l",46.41% and 40.9559%
same,% protein remaining,"SMARCA2; A549, 4h, conc 1.23457e-8 mol/l",53.3153%
same,% protein remaining,"SMARCA2; A549, 4h, conc 3.1623e-8 mol/l",21.5929% and 21.3671%
same,% protein remaining,"SMARCA2; A549, 4h, conc 3.7037e-8 mol/l",16.6414%
same,% protein remaining,"SMARCA2; A549, 4h, conc 1.00001e-7 mol/l",9.055% and 9.573%
same,% protein remaining,"SMARCA2; A549, 4h, conc 1.11111e-7 mol/l",6.719%
same,% protein remaining,"SMARCA2; A549, 4h, conc 3.1623e-7 mol/l",3.884% and 5.2896%
same,% protein remaining,"SMARCA2; A549, 4h, conc 3.33333e-7 mol/l",5.288%
same,% protein remaining,"SMARCA2; A549, 4h, conc 1e-6 mol/l",9.764%
same,% protein remaining,"SMARCA2; A549, 4h, conc 1.00001e-6 mol/l",2.893% and 6.667%
same,% protein remaining,"SMARCA2; A549, 4h, conc 3.1623e-6 mol/l",2.881% and 4.488%
same,DC50,"SMARCA2; A549, 4h, read-out: EC50 (protein remaining)",8 nM
same,"Bottom (% protein remaining, four-parameter fit)","SMARCA2; A549, 8h",4.658%
same,HillSlope (protein remaining),"SMARCA2; A549, 8h",-1.748
same,LogEC50 (protein remaining),"SMARCA2; A549, 8h",-8.366 log10(mol/l)
same,"Top (% protein remaining, four-parameter fit)","SMARCA2; A549, 8h",107%
same,% protein remaining,"SMARCA2; A549, 8h, conc 1.52416e-10 mol/l",110.756% and 87.6939%
same,% protein remaining,"SMARCA2; A549, 8h, conc 4.57247e-10 mol/l",98.1008% and 121.894%
same,% protein remaining,"SMARCA2; A549, 8h, conc 1.37174e-9 mol/l",100.189% and 99.1847%
same,% protein remaining,"SMARCA2; A549, 8h, conc 3.7037e-8 mol/l",13.1114% and 6.497%
same,% protein remaining,"SMARCA2; A549, 8h, conc 1.11111e-7 mol/l",4.666% and 4.638%
same,% protein remaining,"SMARCA2; A549, 8h, conc 3.33333e-7 mol/l",3.034% and 3.636%
same,% protein remaining,"SMARCA2; A549, 8h, conc 1e-6 mol/l",2.595% and 3.383%
same,% protein remaining,"SMARCA2; A549, 8h, conc 3e-6 mol/l",3.585% and 2.581%
same,DC50,"SMARCA2; A549, 8h, read-out: EC50 (protein remaining)",4.31 nM
same,"Bottom (% protein remaining, four-parameter fit)","SMARCA2; A549, 18h",5.224%
same,HillSlope (protein remaining),"SMARCA2; A549, 18h",-3.553
same,LogEC50 (protein remaining),"SMARCA2; A549, 18h",-8.518 log10(mol/l)
same,"Top (% protein remaining, four-parameter fit)","SMARCA2; A549, 18h",104.8%
same,% protein remaining,"SMARCA2; A549, 18h, conc 1.52416e-10 mol/l",87.6939%
same,% protein remaining,"SMARCA2; A549, 18h, conc 4.57247e-10 mol/l",121.894%
same,% protein remaining,"SMARCA2; A549, 18h, conc 1.37174e-9 mol/l",99.1847%
same,% protein remaining,"SMARCA2; A549, 18h, conc 4.11523e-9 mol/l",30.1189%
same,% protein remaining,"SMARCA2; A549, 18h, conc 1.23457e-8 mol/l",11.5462%
same,% protein remaining,"SMARCA2; A549, 18h, conc 3.7037e-8 mol/l",6.497%
same,% protein remaining,"SMARCA2; A549, 18h, conc 1.11111e-7 mol/l",4.638%
same,% protein remaining,"SMARCA2; A549, 18h, conc 3.33333e-7 mol/l",3.636%
same,% protein remaining,"SMARCA2; A549, 18h, conc 1e-6 mol/l",3.383%
same,% protein remaining,"SMARCA2; A549, 18h, conc 3e-6 mol/l",2.581%
same,DC50,"SMARCA2; A549, 18h, read-out: EC50 (protein remaining)",3.03 nM
same,SMARCA2 degradation in sensitive cell lines,SMARCA2; A549 and NCI-H1568,rapid and complete degradation of SMARCA2
same,"Bottom (best-fit value, % protein remaining)",SMARCA2; [1],15.27%
same,HillSlope,SMARCA2; [1],-1.75
same,LogEC50,"SMARCA2; HCC4006_SM2, log10 of concentration in mol/l",-7.779
same,DC50,"SMARCA2; HCC4006_SM2, protein degradation, four-parameter fit, read-out: EC50 (the source's name)",16.6 nM
same,"Bottom (best-fit value, % protein remaining)",SMARCA2; [2],10.4%
same,HillSlope,SMARCA2; [2],-2.48

# Reference: publication PMC9551036, “A selective and orally bioavailable VHL-recruiting PROTAC achieves SMARCA2 degradation in vivo” (Nature Communications, 2022)
